Assay results taken from article PMC10962836, “Cis-regulatory polymorphism at fiz ecdysone oxidase contributes to polygenic evolutionary response to malnutrition in Drosophila” (PLOS Genetics, 2024).

Target: T1, Fiz (Drosophila melanogaster, UniProt Q9VY04)
T1 construct: N-terminal RGS-6xHis tag kept; E. coli Rosetta Gami DE3, Ni-NTA; contains FAD
T1 sequence (Q9VY04 2-646): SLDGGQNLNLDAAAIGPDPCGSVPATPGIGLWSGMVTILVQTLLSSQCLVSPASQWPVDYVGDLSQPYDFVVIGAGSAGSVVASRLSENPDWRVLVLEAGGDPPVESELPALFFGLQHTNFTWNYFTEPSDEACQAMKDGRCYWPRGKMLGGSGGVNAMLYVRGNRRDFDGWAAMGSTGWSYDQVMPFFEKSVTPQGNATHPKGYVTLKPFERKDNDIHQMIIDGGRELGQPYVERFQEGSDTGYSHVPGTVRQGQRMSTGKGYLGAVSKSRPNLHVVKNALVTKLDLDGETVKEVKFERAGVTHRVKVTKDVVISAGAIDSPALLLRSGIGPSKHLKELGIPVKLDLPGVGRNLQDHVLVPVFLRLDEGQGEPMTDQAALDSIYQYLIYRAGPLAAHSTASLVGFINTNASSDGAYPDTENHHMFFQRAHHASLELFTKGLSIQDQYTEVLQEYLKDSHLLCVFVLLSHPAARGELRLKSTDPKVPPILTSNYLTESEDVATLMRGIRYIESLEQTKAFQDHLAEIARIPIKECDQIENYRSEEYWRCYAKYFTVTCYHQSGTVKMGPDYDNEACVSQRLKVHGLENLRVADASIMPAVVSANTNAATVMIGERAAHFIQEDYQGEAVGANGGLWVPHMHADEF
Experiment: FAD content of purified protein (method in supplement)
Assay type: binding
Settings: co-purified from E. coli, no FAD addition told

Cc1cc2nc3c(=O)[nH]c(=O)nc-3n(C[C@H](O)[C@H](O)[C@H](O)COP(=O)(O)OP(=O)(O)OC[C@H]3O[C@@H](n4cnc5c(N)ncnc54)[C@H](O)[C@@H]3O)c2cc1C [FAD]
FAD content of purified protein (method in supplement): we confirmed that our purified Fiz contained FAD
